What was measured:
[1] = molecular target: Proteasome Macropain subunit (Homo sapiens) (UniProt P49721); assay: Inhibition of 26S proteasome beta 2 in human HEK293 cell lysate assessed as residual activity at 1 uM after 1 hr; type: cell-free
[2] = molecular target: Proteasome Macropain subunit (Homo sapiens) (UniProt P49721); assay: Inhibition of 26S proteasome beta 2 in human HEK293 cell lysate assessed as residual activity at […] after 1 hr; type: cell-free
[3] = molecular target: T1, Proteasome component C5 (Homo sapiens) (UniProt P20618); assay: Inhibition of 26S proteasome beta 1 in human HEK293 cell lysate assessed as residual activity at 9 uM after 1 hr; type: cell-free
T1 sequence (whole entry): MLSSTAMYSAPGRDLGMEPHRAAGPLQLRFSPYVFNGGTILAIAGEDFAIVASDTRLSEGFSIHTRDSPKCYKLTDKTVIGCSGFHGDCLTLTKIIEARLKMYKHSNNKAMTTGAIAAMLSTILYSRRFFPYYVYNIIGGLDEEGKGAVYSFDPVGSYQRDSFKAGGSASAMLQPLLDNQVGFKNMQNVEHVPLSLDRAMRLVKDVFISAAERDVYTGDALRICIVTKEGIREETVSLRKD

[4] = molecular target: Proteasome subunit beta type-5 (Homo sapiens) (UniProt P28074); assay: Inhibition of 26S proteasome beta 5 in human HEK293 cell lysate assessed as residual activity at 9 uM after 1 hr
[5] = molecular target: T1, Proteasome component C5 (Homo sapiens); assay: Inhibition of 26S proteasome beta 1 in human HEK293 cell lysate assessed as residual activity at […] after 1 hr; type: cell-free
[6] = molecular target: Proteasome subunit beta type-5 (Homo sapiens) (UniProt P28074); assay: Inhibition of 26S proteasome beta 5 in human HEK293 cell lysate assessed as residual activity at 0.03 uM after 1 hr
[7] = molecular target: Proteasome Macropain subunit (Homo sapiens) (UniProt P49721); assay: Inhibition of 26S proteasome beta 2 in human HEK293 cell lysate assessed as residual activity at 3 uM after 1 hr; type: cell-free
[8] = molecular target: Proteasome subunit beta type-5 (Homo sapiens) (UniProt P28074); assay: Inhibition of 26S proteasome beta 5 in human HEK293 cell lysate assessed as residual activity at 0.11 uM after 1 hr
[9] = molecular target: Proteasome Macropain subunit (Homo sapiens) (UniProt P49721); assay: Inhibition of 26S proteasome beta 2 in human HEK293 cell lysate assessed as residual activity at 9 uM after 1 hr; type: cell-free
[10] = molecular target: Proteasome subunit beta type-5 (Homo sapiens) (UniProt P28074); assay: Inhibition of 26S proteasome beta 5 in human HEK293 cell lysate assessed as residual activity at […] after 1 hr
[11] = molecular target: Proteasome Macropain subunit (Homo sapiens) (UniProt P49721); assay: Inhibition of 26S proteasome beta 2 in human HEK293 cell lysate assessed as residual activity at 0.11 uM after 1 hr; type: cell-free
[12] = molecular target: Proteasome Macropain subunit (Homo sapiens) (UniProt P49721); assay: Inhibition of 26S proteasome beta 2 in human HEK293 cell lysate assessed as residual activity at 0.03 uM after 1 hr; type: cell-free
[13] = molecular target: T1, Proteasome component C5 (Homo sapiens); assay: Inhibition of 26S proteasome beta 1 in human HEK293 cell lysate assessed as residual activity at 1 uM after 1 hr; type: cell-free
[14] = molecular target: Proteasome subunit beta type-5 (Homo sapiens) (UniProt P28074); assay: Inhibition of 26S proteasome beta 5 in human HEK293 cell lysate assessed as residual activity at 1 uM after 1 hr
[15] = molecular target: T1, Proteasome component C5 (Homo sapiens); assay: Inhibition of 26S proteasome beta 1 in human HEK293 cell lysate assessed as residual activity at 3 uM after 1 hr; type: cell-free
[16] = molecular target: T1, Proteasome component C5 (Homo sapiens); assay: Inhibition of 26S proteasome beta 1 in human HEK293 cell lysate assessed as residual activity at 0.11 uM after 1 hr; type: cell-free
[17] = molecular target: Proteasome subunit beta type-5 (Homo sapiens) (UniProt P28074); assay: Inhibition of 26S proteasome beta 5 in human HEK293 cell lysate assessed as residual activity at 3 uM after 1 hr
[18] = molecular target: T1, Proteasome component C5 (Homo sapiens); assay: Inhibition of 26S proteasome beta 1 in human HEK293 cell lysate assessed as residual activity at 0.03 uM after 1 hr; type: cell-free

Sequence of Proteasome subunit beta type-5 (Homo sapiens) (P28074 whole entry, looked up): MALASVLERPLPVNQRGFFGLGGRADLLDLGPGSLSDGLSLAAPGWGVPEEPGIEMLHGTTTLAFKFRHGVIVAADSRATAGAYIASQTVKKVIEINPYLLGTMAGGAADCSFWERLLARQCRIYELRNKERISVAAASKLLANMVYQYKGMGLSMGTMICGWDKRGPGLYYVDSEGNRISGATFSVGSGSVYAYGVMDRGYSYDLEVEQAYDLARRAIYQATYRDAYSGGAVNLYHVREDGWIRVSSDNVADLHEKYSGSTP
Sequence of Proteasome Macropain subunit (Homo sapiens) (P49721 whole entry): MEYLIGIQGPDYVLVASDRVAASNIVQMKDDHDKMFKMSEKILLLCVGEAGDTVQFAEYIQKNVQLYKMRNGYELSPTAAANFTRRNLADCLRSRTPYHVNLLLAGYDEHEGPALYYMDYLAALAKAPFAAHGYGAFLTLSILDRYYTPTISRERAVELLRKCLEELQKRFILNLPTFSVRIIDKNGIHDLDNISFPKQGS

CC1=CC(C)=[N+]2C1=C(CCCCc1cn([C@@H](Cc3ccccc3)C(=O)N[C@@H](Cc3ccccc3)C(=O)N[C@@H](Cc3c(F)c(F)c(F)c(F)c3F)C(=O)N[C@@H](CC(C)C)C(=O)[C@@]3(C)CO3)nn1)c1c(C)cc(C)n1[B-]2(F)F
Activity [1]: 124% | Activity [2]: 106% | Activity [3]: 100% | Activity [4]: 8.3% | Activity [5]: 98.4% | Activity [6]: 89.7% | Activity [7]: 141% | Activity [8]: 76.5% | Activity [9]: 102% | Activity [10]: 45.8% | Activity [11]: 134% | Activity [12]: 117% | Activity [13]: 107% | Activity [14]: 25.3% | Activity [15]: 120% | Activity [16]: 111% | Activity [17]: 18% | Activity [18]: 101%
